These results are taken from publication PMC7558026, “Exploring and applying the substrate promiscuity of a C-glycosyltransferase in the chemo-enzymatic synthesis of bioactive C-glycosides” (Nature Communications, 2020).

The target in one data set is AbCGT (Aloe vera, UniProt A0A7G9P699). The experiment in a line: Glycosyltransferase activity assay, purified AbCGT (wild type) with aglycon acceptors and UDP-Glc. The class given is biochemical, Aloe barbadensis. The settings on record: fig. 2b, purified AbCGT, redesigned substrates; Reaction-1 to -3.
Sequence of AbCGT (A0A7G9P699 entry or part of it): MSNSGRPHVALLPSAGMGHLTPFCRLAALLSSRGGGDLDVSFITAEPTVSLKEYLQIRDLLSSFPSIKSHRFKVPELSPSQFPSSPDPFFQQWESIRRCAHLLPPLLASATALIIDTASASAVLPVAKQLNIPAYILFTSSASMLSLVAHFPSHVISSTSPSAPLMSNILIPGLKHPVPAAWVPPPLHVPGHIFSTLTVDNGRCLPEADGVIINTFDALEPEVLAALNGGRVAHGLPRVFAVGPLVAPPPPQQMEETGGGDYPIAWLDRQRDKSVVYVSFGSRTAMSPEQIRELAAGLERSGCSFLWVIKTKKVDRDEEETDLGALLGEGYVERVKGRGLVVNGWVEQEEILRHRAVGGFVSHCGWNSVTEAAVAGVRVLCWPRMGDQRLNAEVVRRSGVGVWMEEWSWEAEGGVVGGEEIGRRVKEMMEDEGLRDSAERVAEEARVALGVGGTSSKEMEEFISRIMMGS
The subject of another data set is E. coli-AbCGT. Kind of data set: Glycosylation by whole-cell biocatalyst E. coli-AbCGT. The class given is cell-based. The note with it: fig. 2c, 30 °C, M9 medium, 12 h, 0.25 mM acceptor; Reaction-1 to -3. Here is the method: The induced cells of E. coli-AbCGT were harvested by centrifugation at 3000 × g for 5 min at 4 °C and washed with ddH2O. Pellets were resuspended by M9 minimal medium containing 2% glucose to appropriate cell density (OD600 = 3.0). Prepared whole-cell biocatalyst of E. coli-AbCGT (500 μL) was then added to 2-mL tubes containing various acceptors at a concentration of 0.25 mM. The mixture was incubated at 30 °C for 12 h with shaking (200 rpm). The reactions were analyzed using GT activity assays as described above. For quantification, three parallel assays were routinely carried out.

In the next data set the target is T1, SGLT2 (Homo sapiens, UniProt P31639).
T1 construct: Human full-length SGLT2 cDNA (NM_003041.3) was synthesized; expressed in transfected cells; host or cells: HEK293, retroviral transduction with pMSCVpuro-SGLT2, puromycin selected
T1 sequence (P31639 1-672): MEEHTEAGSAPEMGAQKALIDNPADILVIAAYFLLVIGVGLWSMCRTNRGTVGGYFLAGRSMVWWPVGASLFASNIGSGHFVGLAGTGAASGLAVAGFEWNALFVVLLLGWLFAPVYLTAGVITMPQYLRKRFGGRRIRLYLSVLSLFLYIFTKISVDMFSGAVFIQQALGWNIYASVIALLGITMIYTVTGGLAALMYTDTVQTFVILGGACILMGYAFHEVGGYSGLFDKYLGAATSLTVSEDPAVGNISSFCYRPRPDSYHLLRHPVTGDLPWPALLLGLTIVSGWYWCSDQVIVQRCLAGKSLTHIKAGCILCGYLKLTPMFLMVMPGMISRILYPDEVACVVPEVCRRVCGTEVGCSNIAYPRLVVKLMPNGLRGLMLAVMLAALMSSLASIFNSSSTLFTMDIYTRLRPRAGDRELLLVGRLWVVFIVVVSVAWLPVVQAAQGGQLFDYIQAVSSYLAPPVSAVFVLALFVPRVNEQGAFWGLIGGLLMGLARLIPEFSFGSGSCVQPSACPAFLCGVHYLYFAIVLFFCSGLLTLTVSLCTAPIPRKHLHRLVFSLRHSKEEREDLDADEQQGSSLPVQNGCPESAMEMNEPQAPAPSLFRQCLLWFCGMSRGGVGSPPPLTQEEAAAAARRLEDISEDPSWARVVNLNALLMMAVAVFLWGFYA
Kind of data set: 1-NBDG uptake in HEK293 cells stably expressing SGLT2. It counts as cell-based. The settings on record: HEK293, compound at 10 μM; triplicate; read-out: SGLT2 inhibitory rates.

The test system of data set [1] is Influenza A/WSN/33 (H1N1). The experiment in a line: microbe, parasite or virus in culture. The note with it: — = no inhibition activity. The class given is cell-based.
Another data set can be described thus: in vitro. The settings on record: human.

Values joined by “and” are separate entries in the source; they are usually repeats but may differ in a detail not shown here. Equal entries are not always repeated.

With `Oc1cc(O)c(Cc2ccc3nccnc3c2)c(O)c1` [Compound 44], the “conversion rates, Purified Enzyme” value at AbCGT is 100%. For the same molecule, the “conversion rates, Whole cells” value with E. coli-AbCGT was 7.1% and 12.8% and 10.1%. For the same molecule, the inhibition at 10 µM on SGLT2 stood at 0.2%. For the same molecule, in data set [1] (final concentration 20 μM, read-out: Inhibitory Rates, anti-influenza A virus activity), the inhibition at 20 µM is under 0%. Besides, the IC50 (as a rule, the midpoint of a concentration-inhibition curve) in data set [1] (read-out: IC50, anti-influenza A virus activity) was over 20 µM. The molecule further gave a CC50 in “in vitro” of over 200 µM.
